Target: xanthine oxidase (Homo sapiens, UniProt P47989)
Assay: Xanthine oxidase inhibitory activity, 96 well plate, kinetic reading at 295 nm
Type: biochemical

Chain of xanthine oxidase (P47989 whole entry, species assumed): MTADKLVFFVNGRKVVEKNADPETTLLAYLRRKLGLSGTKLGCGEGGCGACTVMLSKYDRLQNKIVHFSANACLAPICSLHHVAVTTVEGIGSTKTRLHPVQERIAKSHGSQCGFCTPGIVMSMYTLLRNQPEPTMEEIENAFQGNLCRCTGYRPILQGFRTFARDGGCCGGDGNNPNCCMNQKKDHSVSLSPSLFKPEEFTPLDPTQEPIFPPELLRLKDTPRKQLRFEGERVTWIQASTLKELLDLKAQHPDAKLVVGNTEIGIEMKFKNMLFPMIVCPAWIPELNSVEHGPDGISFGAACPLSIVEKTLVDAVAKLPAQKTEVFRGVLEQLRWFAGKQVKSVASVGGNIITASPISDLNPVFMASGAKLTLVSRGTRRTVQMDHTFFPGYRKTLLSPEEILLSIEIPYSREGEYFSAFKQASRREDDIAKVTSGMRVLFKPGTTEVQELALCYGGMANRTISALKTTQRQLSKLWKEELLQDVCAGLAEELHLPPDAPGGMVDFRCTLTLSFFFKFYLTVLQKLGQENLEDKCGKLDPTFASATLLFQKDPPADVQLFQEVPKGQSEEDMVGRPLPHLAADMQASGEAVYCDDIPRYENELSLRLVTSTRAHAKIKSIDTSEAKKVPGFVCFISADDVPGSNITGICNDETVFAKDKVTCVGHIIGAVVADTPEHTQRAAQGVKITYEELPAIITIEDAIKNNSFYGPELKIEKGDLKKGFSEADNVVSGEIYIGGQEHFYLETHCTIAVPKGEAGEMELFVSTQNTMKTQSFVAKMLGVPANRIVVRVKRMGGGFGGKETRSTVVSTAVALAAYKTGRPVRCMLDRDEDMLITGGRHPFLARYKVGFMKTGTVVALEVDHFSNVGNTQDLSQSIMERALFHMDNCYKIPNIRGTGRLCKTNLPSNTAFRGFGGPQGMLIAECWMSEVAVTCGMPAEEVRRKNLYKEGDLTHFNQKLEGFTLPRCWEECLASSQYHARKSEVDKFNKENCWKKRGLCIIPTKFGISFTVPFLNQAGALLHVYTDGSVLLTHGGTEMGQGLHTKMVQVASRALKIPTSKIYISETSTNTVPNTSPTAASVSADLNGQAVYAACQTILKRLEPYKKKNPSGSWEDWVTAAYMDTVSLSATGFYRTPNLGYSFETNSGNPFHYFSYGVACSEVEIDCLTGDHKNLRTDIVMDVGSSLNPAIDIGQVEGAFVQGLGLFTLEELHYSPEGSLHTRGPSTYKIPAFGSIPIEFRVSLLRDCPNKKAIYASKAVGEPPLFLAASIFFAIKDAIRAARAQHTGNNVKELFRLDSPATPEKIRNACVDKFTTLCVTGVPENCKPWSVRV

Row | Compound | PERCENT XANTHINE OXIDASE INHIBITION (compound concentration 0.1 μM) [%] | PERCENT XANTHINE OXIDASE INHIBITION (compound concentration 1 μM) [%] | PERCENT XANTHINE OXIDASE INHIBITION (compound concentration 0.03 μM) [%] | other results
1 | O=C(OC1CCCCC1)c1ccc(-c2nnn[nH]2)cc1 [GO] | 18 | 82 | – | PERCENT XANTHINE OXIDASE INHIBITION (compound concentration 0.01 μM): 6%
2 | O=C(OCC(F)(F)C(F)F)c1ccc(-c2nnn[nH]2)cc1 [GP] | 65 | 92 | – | PERCENT XANTHINE OXIDASE INHIBITION (compound concentration 0.01 μM): 9%
3 | CCC#CCOC(=O)c1ccc(-c2nnn[nH]2)cc1 [GQ] | 35 | 78 | – | PERCENT XANTHINE OXIDASE INHIBITION (compound concentration 0.01 μM): 0%
4 | C=C(C)C1CC=C(COC(=O)c2ccc(-c3nnn[nH]3)cc2)CC1 (stereo not shown) [GR] | 8 | 48 | – | PERCENT XANTHINE OXIDASE INHIBITION (compound concentration 0.01 μM): 0%
5 | O=C(OCC(C(F)(F)F)C(F)(F)F)c1ccc(-c2nnn[nH]2)cc1 [GS] | 68 | 95 | – | PERCENT XANTHINE OXIDASE INHIBITION (compound concentration 0.01 μM): 13%
6 | O=C(Oc1cccc(Br)c1)c1ccc(-c2nnn[nH]2)cc1 [GT] | 53 | 94 | – | PERCENT XANTHINE OXIDASE INHIBITION (compound concentration 0.01 μM): 8%
7 | O=C(OCc1ccc(Br)cc1)c1ccc(-c2nnn[nH]2)cc1 [GU] | 69 | 94 | – | PERCENT XANTHINE OXIDASE INHIBITION (compound concentration 0.01 μM): 17%
8 | O=C(OCC(Cl)(Cl)Cl)c1ccc(-c2nnn[nH]2)cc1 [GV] | 73 | 95 | – | PERCENT XANTHINE OXIDASE INHIBITION (compound concentration 0.01 μM): 14%
9 | O=C(OCCN1C(=O)CCC1=O)c1ccc(-c2nnn[nH]2)cc1 [GW] | 9 | 39 | – | PERCENT XANTHINE OXIDASE INHIBITION (compound concentration 0.01 μM): 5%
10 | O=C(OCc1ccccc1I)c1ccc(-c2nnn[nH]2)cc1 [GX] | – | 100 | – | PERCENT XANTHINE OXIDASE INHIBITION (compound concentration 0.01 μM, 0.01 µM): 19%; PERCENT XANTHINE OXIDASE INHIBITION (compound concentration 0.1 μM, 0.1 µM): 84%
11 | O=C(OC1CCC2CCCCC2C1)c1ccc(-c2nnn[nH]2)cc1 (stereo not shown) [GY] | 11 | 76 | – | PERCENT XANTHINE OXIDASE INHIBITION (compound concentration 0.01 μM): 19%
12 | O=C(OC(C1CCCCC1)C1CCCCC1)c1ccc(-c2nnn[nH]2)cc1 [GZ] | – | 8 | – | –
13 | O=C(NC1CCCCC1)c1ccc(-c2nnn[nH]2)cc1 [HA] | 10 | 61 | – | –
14 | O=C(NCc1ccc2c(c1)OCO2)c1ccc(-c2nnn[nH]2)cc1 [HB] | – | 25 | – | –
15 | O=C(NCc1cccnc1)c1ccc(-c2nnn[nH]2)cc1 [HC] | – | 25 | – | –
16 | CCOc1ccc(-c2nnn[nH]2)cc1 [HD] | – | – | – | PERCENT XANTHINE OXIDASE INHIBITION (compound concentration 100 μM): 60%
17 | O=[N+]([O-])c1cc(-c2nnn[nH]2)ccc1Cl [HF] | – | – | – | PERCENT XANTHINE OXIDASE INHIBITION (compound concentration 100 μM): 80%
18 | COc1cc(-c2nnn[nH]2)cc(OC)c1OC [HG] | – | – | – | PERCENT XANTHINE OXIDASE INHIBITION (compound concentration 100 μM): 22%
19 | c1cncc(-c2ccc(-c3nnn[nH]3)cc2)c1 [HI] | – | 14 | – | PERCENT XANTHINE OXIDASE INHIBITION (compound concentration 10 μM): 24%; PERCENT XANTHINE OXIDASE INHIBITION (compound concentration 100 μM): 70%
20 | c1cncc(-c2cccc(-c3nnn[nH]3)c2)c1 [HJ] | – | – | – | PERCENT XANTHINE OXIDASE INHIBITION (compound concentration 100 μM): 2%
21 | CC(C)(C)OC(=O)N1CCN(C(=O)c2ccc(-c3nnn[nH]3)cc2)CC1 [HK] | – | – | – | PERCENT XANTHINE OXIDASE INHIBITION (compound concentration 100 μM): 43%
22 | O=C(c1ccc(-c2nnn[nH]2)cc1)N1CCNCC1 [HL] | – | – | – | PERCENT XANTHINE OXIDASE INHIBITION (compound concentration 100 μM): 0%
23 | COc1ccc(-c2nnn[nH]2)c2ccccc12 [HM] | – | – | – | PERCENT XANTHINE OXIDASE INHIBITION (compound concentration 100 μM): 27%
24 | O=C(OCc1cccnc1)c1ccc(-c2nnn[nH]2)cc1 [HO] | 95 | 98 | – | PERCENT XANTHINE OXIDASE INHIBITION (compound concentration 0.05 μM): 46%
25 | O=C(OCc1ccco1)c1ccc(-c2nnn[nH]2)cc1 [HP] | 91 | 100 | – | PERCENT XANTHINE OXIDASE INHIBITION (compound concentration 0.05 μM): 41%
26 | O=C(OCCc1cccs1)c1ccc(-c2nnn[nH]2)cc1 [HQ] | 97 | 95 | – | PERCENT XANTHINE OXIDASE INHIBITION (compound concentration 0.05 μM): 53%
27 | CCCOC(=O)c1ccc(-c2nnn[nH]2)cc1 [HR] | 95 | 95 | – | PERCENT XANTHINE OXIDASE INHIBITION (compound concentration 0.05 μM): 34%

Row | Compound | PERCENT XANTHINE OXIDASE INHIBITION (compound concentration 0.1 μM) [%] | PERCENT XANTHINE OXIDASE INHIBITION (compound concentration 1 μM) [%] | PERCENT XANTHINE OXIDASE INHIBITION (compound concentration 0.03 μM) [%] | other results
28 | O=C(NCC1CCCCC1)c1ccc(-c2nnn[nH]2)cc1 [HS] | 16 | 55 | 8 | –
29 | O=C(NC12CC3CC(CC(C3)C1)C2)c1ccc(-c2nnn[nH]2)cc1 [HT] | 23 | 62 | 15 | –
30 | O=S(=O)(NC12CC3CC(CC(C3)C1)C2)c1ccc(-c2nnn[nH]2)cc1 [HU] | – | 0 | – | –
31 | O=S(=O)(NC1CCCCC1)c1ccc(-c2nnn[nH]2)cc1 [HV] | – | 0 | – | –
32 | O=C(Nc1cccc(F)c1)c1ccc(-c2nnn[nH]2)cc1 [HW] | 62 | 89 | 32 | –
33 | O=C(Nc1ccccc1F)c1ccc(-c2nnn[nH]2)cc1 [HY] | 45 | 86 | 20 | –
34 | O=C(Nc1cccc(I)c1)c1ccc(-c2nnn[nH]2)cc1 [HZ] | 41 | 88 | 20 | –
35 | O=C(O)c1cccc(NC(=O)c2ccc(-c3nnn[nH]3)cc2)c1 [IB] | 64 | 94 | 38 | –
36 | O=C(O)Cc1cccc(NC(=O)c2ccc(-c3nnn[nH]3)cc2)c1 [ID] | 37 | 72 | 13 | –
37 | CCc1cccc(NC(=O)c2ccc(-c3nnn[nH]3)cc2)c1 [IE] | 38 | 87 | 22 | –
38 | CC(C)c1ccccc1NC(=O)c1ccc(-c2nnn[nH]2)cc1 [IF] | – | 16 | – | –
39 | CCCCc1ccc(NC(=O)c2ccc(-c3nnn[nH]3)cc2)cc1 [IH] | 63 | 95 | 33 | –
40 | O=C(O)Cc1ccc(NC(=O)c2ccc(-c3nnn[nH]3)cc2)cc1 [II] | 45 | 90 | 20 | –
41 | COc1ccc(NC(=O)c2ccc(-c3nnn[nH]3)cc2)cc1 [IJ] | 58 | 93 | 27 | –
42 | COc1ccccc1NC(=O)c1ccc(-c2nnn[nH]2)cc1 [IK] | 17 | 55 | 9 | –
43 | COc1cccc(NC(=O)c2ccc(-c3nnn[nH]3)cc2)c1 [IL] | 46 | 86 | 21 | –
44 | CN(C(=O)c1ccc(-c2nnn[nH]2)cc1)c1ccccc1 [IM] | – | 0 | – | –
45 | c1cc(-c2nnn[nH]2)ccc1OCC1CCCCC1 [IN] | 21 | 68 | – | xanthine oxidase activity (result in words) (summary of the table): inhibit xanthine oxidase activity
46 | O=C(Nc1ccccc1)c1cccc(-c2nnn[nH]2)c1 [IO] | – | 0 | – | –
47 | CCCCOc1ccc(NC(=O)c2ccc(-c3nnn[nH]3)cc2)cc1 [IQ] | 33 | 64 | 36 | –
48 | O=C(Nc1ccccc1)Nc1ccc(-c2nnn[nH]2)cc1 [IU] | 9 | 42 | 3 | –
49 | c1ccc(COc2ccc(-c3nnn[nH]3)cc2)cc1 [IV] | 10 | 35 | – | –
50 | c1ccc(CCCOc2ccc(-c3nnn[nH]3)cc2)cc1 [IW] | 9 | 22 | – | –
51 | O=C(Nc1ccc(Cl)cc1Cl)c1ccc(-c2nnn[nH]2)cc1 [IY] | 47 | 86 | 26 | –
52 | O=C(Nc1ccc(F)cc1F)c1ccc(-c2nnn[nH]2)cc1 [IZ] | 52 | 89 | 23 | –
53 | O=C(NCc1ccccc1)c1ccc(-c2nnn[nH]2)cc1 [JA] | 0 | – | – | –

Source: US7087631B2, “Aryltetrazole compounds, and compositions thereof” (Inotek Pharmaceuticals Corporation, priority 2002, dated 2006)
